Measurements taken from US20100172854A1, “ANTIBACTERIAL FORMULATIONS” (priority 2007, published 2010).
In brackets after ≈: the same amount, converted by molar mass.

Legend:
[1] = tested on: Streptococcus mutans ATCC 25175; experiment: MBC assay; format: cell-based
Protocol: (§1) The S. mutans strains were cultured and maintained on Wilkins-Chalgren Anaerobe Medium (agar and broth) at pH 7.0 supplemented with 1 g/L glucose; all cultures were incubated at 37° C. for 48 h in an atmosphere containing 5% CO2.
(§2) This assay, normally carried out after an MIC assay, determines the minimum concentration of a compound that is lethal to the micro-organism being tested.
(§3) These samples were then individually sub-cultured on antibiotic-free agar medium, under the incubation conditions described above. Following incubation they were examined visually for microbial growth.

[2] = tested on: Streptococcus mutans ATCC 35668; experiment: MBC assay; format: cell-based
Protocol: as §1, §2, §3

[3] = tested on: Streptococcus mutans ATCC 25175; experiment: MIC assay; format: cell-based; details: ATCC25175
Protocol: as §1
(§4) This is a standard international method for quantitatively assessing the antimicrobial activity of a compound in a liquid medium. The method used a sterile 96-well microtitre plate, capable of holding about 200 μl of liquid per well. The wells contained liquid culture medium and ranges of decreasing concentrations of the relevant test compound in doubling dilutions (e.g. 1000, 500, 250, 125 . . . μg/ml, etc. down to 0.49 μg/ml). The culture media were as described above.
(§5) The wells were inoculated with a liquid suspension of freshly grown micro-organism and incubated under the conditions described above. After incubation, the microtitre plate was examined visually (with the aid of a light box) for cloudiness in each well, which would indicate microbial growth. The MIC value was recorded as the lowest concentration of test compound required to inhibit microbial growth, i.e. the lowest concentration for which the liquid in the well remained clear.
(§6) The assays included both negative (culture medium with no micro-organisms) and positive (culture medium plus diluting solvent plus micro-organism) controls.

[4] = tested on: Streptococcus mutans ATCC 35668; experiment: MIC assay; format: cell-based; details: ATCC35668
Protocol: as §1, §4, §5, §6

P. acnes PPR-007 = experiment: Agar dilution MIC assay; format: cell-based, Propionibacterium acnes; details: Cutibacterium acnes, PPR007
Protocol: (§7) The propionibacteria were cultured and maintained on Wilkins-Chalgren Anaerobe Medium (agar and broth) at pH 6.0; all cultures were incubated anaerobically at 37° C. for 72 hours.
(§8) This is a standard international method for quantitatively assessing the antimicrobial activity of a compound in a solid medium. The test compound was prepared to 40× the highest concentration required (e.g. 10 mg/ml for a final concentration of 250 μg/ml) and a series of doubling dilutions were performed in a suitable solvent. A set amount of these antimicrobial stock solutions was then added to molten agar medium (ca. 55° C.), mixed thoroughly, poured into sterile Petri dishes and allowed to cool/set. The culture medium was as described above.
(§9) A Multipoint™ Inoculator (AQS Manufacturing Ltd, UK) was used to inoculate the plates by spotting the inocula onto the surface of the agar, delivering approximately 1 to 2 μl per spot (yielding 10^5 CFU (colony forming units) per spot).
(§10) The plate(s) were then incubated under the conditions described above, following which they were examined visually for signs of bacterial growth. The MIC value was ascertained when there was a marked reduction in, or total loss of, growth on the test plate at the lowest concentration as compared to that of the growth on the control plate.
(§11) The assays were conducted in triplicate and included a positive control (culture medium, diluting solvent and inoculum).

P. acnes PRP-008 = experiment: Agar dilution MIC assay; format: cell-based, Propionibacterium acnes; details: Cutibacterium acnes, PRP008, resistance phenotype Clin
Protocol: as §7, §8, §9, §10, §11

P. acnes PRP-023 = experiment: Agar dilution MIC assay; format: cell-based, Propionibacterium acnes; details: Cutibacterium acnes, PRP023, resistance phenotype MLSK
Protocol: as §7, §8, §9, §10, §11

P. acnes PRP-004 = experiment: Agar dilution MIC assay; format: cell-based, Propionibacterium acnes; details: Cutibacterium acnes, PRP004, resistance phenotype Tet
Protocol: as §7, §8, §9, §10, §11

P. acnes PRP-101 = experiment: Agar dilution MIC assay; format: cell-based, Propionibacterium acnes; details: Cutibacterium acnes, PRP101, resistance phenotype Tet/MLS
Protocol: as §7, §8, §9, §10, §11

P. acnes PRP-002 = experiment: Agar dilution MIC assay; format: cell-based, Propionibacterium acnes; details: Cutibacterium acnes, PRP002, resistance phenotype Tet/MLS
Protocol: as §7, §8, §9, §10, §11

P. acnes PRP-039 = experiment: Agar dilution MIC assay; format: cell-based, Propionibacterium acnes; details: Cutibacterium acnes, PRP039, resistance phenotype Tet/MLS
Protocol: as §7, §8, §9, §10, §11

P. acnes PRP-017 = experiment: Agar dilution MIC assay; format: cell-based, Propionibacterium acnes; details: Cutibacterium acnes, PRP017, resistance phenotype MLS
Protocol: as §7, §8, §9, §10, §11

[5] = tested on: Propionibacterium acnes NCTC 737; experiment: MIC assay; format: cell-based; details: Cutibacterium acnes, NCTC737; P. acnes NCTC 737
Protocol: as §7, §4, §5, §6

P. granulosum PRP-055 = experiment: Agar dilution MIC assay; format: cell-based; details: Propionibacterium, PRP055, resistance phenotype None
Protocol: as §7, §8, §9, §10, §11

[6] = tested on: Propionibacterium granulosum NCTC 11865; experiment: Agar dilution MIC assay; format: cell-based; details: NCTC11865, resistance phenotype None
Protocol: as §7, §8, §9, §10, §11

P. granulosum PRP-005 = experiment: Agar dilution MIC assay; format: cell-based; details: Propionibacterium, PRP005, resistance phenotype MLSK
Protocol: as §7, §8, §9, §10, §11

P. granulosum PRP-019 = experiment: Agar dilution MIC assay; format: cell-based; details: Propionibacterium, PRP019, resistance phenotype MLSK
Protocol: as §7, §8, §9, §10, §11

P. granulosum PRP-044 = experiment: Agar dilution MIC assay; format: cell-based; details: Propionibacterium, PRP044, resistance phenotype MLS
Protocol: as §7, §8, §9, §10, §11

[7] = tested on: Propionibacterium acnes NCTC 737; experiment: Agar dilution MIC assay; format: cell-based; details: Cutibacterium acnes, NCTC737, resistance phenotype None
Protocol: as §7, §8, §9, §10, §11

P. granulosum PRP-021 = experiment: Agar dilution MIC assay; format: cell-based; details: Propionibacterium, PRP021, resistance phenotype MLS
Protocol: as §7, §8, §9, §10, §11

P. granulosum PRP-043 = experiment: Agar dilution MIC assay; format: cell-based; details: Propionibacterium, PRP043, resistance phenotype MLS
Protocol: as §7, §8, §9, §10, §11

[8] = tested on: acyl-CoA: cholesterol acyltransferase (ACAT); details: compound isolated from Aspergillus fumigatus, believed to be Antioxidant 2246; cited from earlier work
a range of test bacteria = details: compound isolated from Aspergillus fumigatus, believed to be Antioxidant 2246; cited from earlier work

Cc1cc(Cc2cc(C)cc(C(C)(C)C)c2O)c(O)c(C(C)(C)C)c1 [AO 2246, 2,2′-methylene-bis(4-methyl-6-tert-butylphenol)]
MIC/MBC Ratio [1]: 0.5 | MBC ([1]; ATCC25175): 62.5 µg/mL (≈ 184 µM) | MIC/MBC Ratio [2]: 0.25 | MBC ([2]; ATCC35668): 31.2 µg/mL (≈ 91.8 µM) | MIC [3]: 15.6 µg/mL (≈ 45.8 µM) | MIC [4]: 7.8 µg/mL (≈ 22.9 µM) | MIC (P. acnes PPR-007): 1.95 µg/mL (≈ 5.73 µM) | MIC (P. acnes PRP-008): 1.95 µg/mL (≈ 5.73 µM) | MIC (P. acnes PRP-023): 3.9 µg/mL (≈ 11.5 µM) | MIC (P. acnes PRP-004): 3.9 µg/mL (≈ 11.5 µM) | MIC (P. acnes PRP-101): 3.9 µg/mL (≈ 11.5 µM) | MIC (P. acnes PRP-002): 3.9 µg/mL (≈ 11.5 µM) | MIC (P. acnes PRP-039): 3.9 µg/mL (≈ 11.5 µM) | MIC (P. acnes PRP-017): 3.9 µg/mL (≈ 11.5 µM) | MIC [5]: 3.9 µg/mL (≈ 11.5 µM) | MIC (P. granulosum PRP-055): 3.9 µg/mL (≈ 11.5 µM) | MIC [6]: 1.95 µg/mL (≈ 5.73 µM) | MIC (P. granulosum PRP-005): 3.9 µg/mL (≈ 11.5 µM) | MIC (P. granulosum PRP-019): 3.9 µg/mL (≈ 11.5 µM) | MIC (P. granulosum PRP-044): 3.9 µg/mL (≈ 11.5 µM) | MIC [7]: 3.9 µg/mL (≈ 11.5 µM) | MIC (P. granulosum PRP-021): 3.9 µg/mL (≈ 11.5 µM) | MIC (P. granulosum PRP-043): 1.95 µg/mL (≈ 5.73 µM) | inhibitor of the enzyme ACAT [8]: inhibitor | in vitro antimicrobial activity (a range of test bacteria): no in vitro antimicrobial activity
